Data as given in patent US7635779B2, “Oxy substituted flavones as antihyperglycemic and antidyslipidemic agents” (Council of Scientific & Industrial Research, priority 2004, dated 2009).
Where two headings read alike, the source gives them in different places.

Legend:
[1] = test system: Swiss mice; assay: Neuromuscular coordination (muscle tone, rota rod test); format: in vivo, mouse; parameters: key to Muscle tone score (hind limb rigidity): 0=Flaccid; 1=Normal; 2=Rigid; settings: for Effect on neuromuscular coordination as compared to control / Rota rod test-numbers of falls / Rota rod test-stay period at 1 h (MEAN ± SE): 100 mg/kg p.o.; for Rota rod test-stay period at 1 h (MEAN ± SE): test duration 2 min; for Muscle tone score (hind limb rigidity): resistance to passive flexion of hind-paw
Protocol: By resistance to passive flexion of each hind-paw
Score: 0=Flaccid, 1=Normal, 2=Rigid, • ii). Rota Rod Test
The period of stay on rotating rod (speed: 5 rotations/min; total duration of test 2 min) for each control and treated mice (−60 min) was recorded by Rotamex 4 (Columbus Instr., USA). The mice were trained to stay for period of 2 min on rotating rod and only trained mice were included in the study.

[2] = test system: Swiss mice; assay: Gross behaviour: motor responses (SMA, gait, posture); format: in vivo, mouse; parameters: key to SMA Score: scale 0-9; control group SMA = 4; settings: for Effect on motor responses: 100 mg/kg; for SMA Score: 100 mg/kg p.o., control score 4
Protocol: 34 and 49 (100 mg/kg, p.o.) was administered in forenoon.
The gross behavioral parameters were observed as follows (based on Irwin protocol):
• i). Spontaneous motor activity [SMA]: Scored on a scale of 0-9 in which SMA in control group was assigned score 4. • ii). Posture/Position: Normal upright posture (+: present or −: absent) • iii). Gait: The mouse is allowed to move on the edge of the cage for 1 min and straight movements without fall or staggering is considered as normal. The gait is recorded as normal or abnormal; if abnormal description is provided. • iv). Ataxia: Any in-coordination in movements occurring in absence of involuntary movements. (+: present or −: absent) • v). Tremor: Involuntary movements (jerking of entire body or limbs) due to alternating contraction of muscles. (+: present or −: absent) • vi). Convulsions: Alternate contraction (flexion) and extension [clonic], or sustained extension [tonic] of limbs resulting into loss of upright posture (+: present or −: absent). • vii). Straub's tail: A sustained (>30 sec) raising of tail (making an angle >60° with the body) (+: present or −: absent) • viii). Catalepsy: A condition in which body or limbs remain passively in any position in which they are placed. It is tested by the placing forepaws on a metallic rod placed at height of 6 cm and if forepaws are not withdrawn within 10 sec catalepsy is considered to be positive (+: present or −: absent). • ix). Abnormal (Bizarre) behaviour: Stereotypy, head shaking, head searching, upright walking, and circling (+: present or −: absent). Results

[3] = test system: Swiss mice; assay: Maximal electroshock seizures (MES); format: in vivo, mouse; settings: 100 mg/kg p.o.; for Numbers of mice showed seizures/numbers of mice tested: 48 mAmp for 0.2 sec
Protocol: Control and treated mice (−60 min) were subjected to electric shock (48 mAmp for 0.2 sec) through pinna electrode.

[4] = test system: Swiss mice; assay: Barbiturate induced hypnosis (sleeping time); format: in vivo, mouse; settings: for Change in barbiturate induced hypnosis: 100 mg/kg p.o.; for Sleep-duration (MEAN ± SE): 100 mg/kg p.o. 30 min prior to Pentobarbitone 45 mg/kg i.p.
Protocol: Sleeping time is calculated by the duration between loss and regain of righting reflex following administration of Pentobarbitone (45 mg/kg, i.p.). 34 and 49 in the dose 100 mg/kg, p.o. was administered 30 min prior to Pentobarbitone.

[5] = test system: triton WR-1339 induced hyperlipidemic rats; assay: Triton model, antidyslipidemic activity; format: in vivo, rat; settings: 100 mg/kg oral, plasma after 18 h; for inhibition in vivo at 100 mg/kg: Rattus norvegicus
Protocol: Male Charles foster rats weighing 200-225 g were divided into control, hyperlipidemic and hyperlipidemic plus drug treated groups containing six animals in each group. Hyperlipidemia was induced by administration of triton WR-1339 (200 mg/kg i.p.). All animals were maintained on a special pellet diet and water ad libitum. Compounds and standard drug were macerated with 0.2% aqueous gum acacia suspension. The suspension was fed orally at the dose of 100 mg/kg simultaneously with triton in drug treated group. The animals of control group received the same amount of gum acacia by similar route of administration. At the end of the experiment, after 18 h, blood was withdrawn from retro orbital plexus and plasma was used for the assay of total cholesterol, phospholipid and triglycerides.
Cholesterol was estimated using the kit provided by Roche Diagnostics. Cholesterol esters are enzymatically hydrolyzed by cholesterol esterase (CE) to cholesterol and free fatty acids. Free cholesterol, including that originally present, is then oxidized by cholesterol oxidase (CO) to cholest-4-en-3-one and hydrogen peroxide. The hydrogen peroxide combines with hydroxy benzoic acid (HBA) and 4-aminoantipyrine (4AAA) in the presence of peroxidase (POD) to form a chromophore (quinoneimine dye), which may be quantitated at 500-505 nm. The intensity of red colour formed is directly proportional to the concentration of total cholesterol in the specimen and measured spectrophotometrically (Searcy, C. L. Diagnostic Biochemistry, 1969, McGraw Hill, New York; Ellefson, R. D.; Caraway, W. T. Fundamentals of clinical chemistry, 1976, Ed Tietz N W, 506-515.)
Triglycerides were estimated using the kit provided by Roche Diagnostics. Lipoprotein lipase hydrolyses triglycerides to yield glycerol and fatty acids. Glycerol kinase converts glycerol to glycerol-3-phosphate, which is oxidized by glycerol phosphate oxidase to dihydroxy acetone phosphate and hydrogen peroxide. In the presence of peroxidase, hydrogen peroxide oxidatively couples with 4-aminoantipyrine and 4-chloro phenol to produce red quinonimine dye. The intensity of red colour formed is directly proportional to the concentration of triglycerides in the specimen and is measured by photometrically (Wahlefeld, A. W.; Bergmeyer, H. U. Ed. Methods of enzymatic analysis, 2nd English edition, New York, N.Y., Academic press inc, 1831-1840.).
Serum (0.2 mL) and perchloric acid (1.0 mL) was digested at 180° C. for 1-1.5 h till the solution became colorless. The liberated inorganic phosphate (Pi) was measured by the method of Fiske and Subbarow (Fiske, C. H.; Subbarow, V. J. Biol. Chem. 1925, 66, 375.). 1 mL of 2.5% ammonium molybdate (prepared in 5 N sulphuric acid) and 0.5 mL reducing agent (4-amino naphthol sulphonic acid, 0.2%), sodium metabisulphite (2.4% w/v in distilled water) was added to the above tubes and mixed well. The reaction mixture was […] with 2.5 mL of triple distilled water and kept at 60° C. in water bath for 20 min. For standard, an appropriate amount of potassium dihydrogen phosphate dissolved in triple distilled water containing 2-10 μg phosphorous (Pi) was run simultaneously with the experiment tubes. The optical density of the blue colour was recorded at 620 nm against reagent blank. The values of Pi were converted into phospholipid by multiplying with 25 (a constant calibrated from Pi value of lecithin).

[6] = phospholipid, read-out: % Fall in lipid levels (Triton model) PL
[7] = total cholesterol, read-out: % Fall in lipid levels (Triton model) TC
[8] = triglycerides, read-out: % Fall in lipid levels (Triton model) TG

Structure (SMILES) | Effect on neuromuscular coordination as compared to control [1] | Rota rod test-numbers of falls ([1]; 30 min) | Rota rod test-numbers of falls ([1]; 60 min) | Rota rod test-stay period at 1 h (MEAN ± SE) [1] | Rota rod test-numbers of falls ([1]; 90 min) | Rota rod test-numbers of falls ([1]; 180 min) | Rota rod test-numbers of falls ([1]; Pre-tt (0)) | Muscle tone score (hind limb rigidity) [1] | Effect on motor responses [2] | SMA Score ([2]; 0 min) | SMA Score ([2]; 30 min) | SMA Score ([2]; 60 min) | SMA Score ([2]; 90 min) | SMA Score ([2]; 120 min) | SMA Score ([2]; 150 min) | SMA Score ([2]; 180 min) | Anti-convulsant activity [3] | Numbers of mice showed seizures/numbers of mice tested [3] | Change in barbiturate induced hypnosis [4] | Sleep-duration (MEAN ± SE) [4] | further results
CC(C)NCC(O)COc1ccc2c(=O)cc(-c3cc(O)cc(O)c3)oc2c1 (stereo not shown) [Compound 49, 3′,5′-Dihydroxy-7-(2-hydroxy-3-iso-propylamino-propoxy)-flavone] | did not show any significant effect | 0 | 1/8 | 112.25 ± 7.75 s | 0 | 0 | 0 | 1 | did not show any significant effect | 4 | 4 | 4 | 4 | 4 | 4 | 4 | did not show any significant anti-convulsant activity | 5/5 | did not show any significant change | 103.4 ± 15.27 min | inhibition in vivo at 100 mg/kg [5, 6]: 28%; inhibition in vivo at 100 mg/kg [5, 7]: 32%; inhibition in vivo at 100 mg/kg [5, 8]: 32%
COc1cc(-c2cc(=O)c3ccc(OCCCOc4ccc(C=C5SC(=O)NC5=O)cc4)cc3o2)cc(OC)c1OC [Compound 65, 7-{3-[4-(thiazolidin-2,4-dione-5-ylidinemethyl)-phenoxy]-propoxy}-3′,4′,5′-trimethoxy-flavone] | – | – | – | – | – | – | – | – | – | – | – | – | – | – | – | – | – | – | – | – | % Fall in lipid levels (Triton model) PL ([5]; phospholipid): 6%; % Fall in lipid levels (Triton model) TC ([5]; total cholesterol): 20%; % Fall in lipid levels (Triton model) TG ([5]; triglycerides): 3%
CC(C)(C)NCC(O)COc1ccc2c(=O)cc(-c3cc(OCc4ccccc4)cc(OCc4ccccc4)c3)oc2c1 (stereo not shown) [Compound 34, 7-(3-tert-Butylamino-2-hydroxy-propoxy)-3′,5′-dibenzyloxy-flavone] | did not show any significant effect | 0 | 1/8 | 111.87 ± 8.82 s | 0 | 0 | 0 | 1 | did not show any significant effect | 4 | 4 | 4 | 4 | 4 | 4 | 4 | did not show any significant anti-convulsant activity | 5/5 | did not show any significant change | 122.5 ± 16.7 min | inhibition in vivo at 100 mg/kg [5, 6]: 18%; inhibition in vivo at 100 mg/kg [5, 7]: 21%; inhibition in vivo at 100 mg/kg [5, 8]: 9%
